The results in this text go back to patent US7101915B1, “P-terphenyl compounds” (Shionogi & Co., Ltd., priority 1996, dated 2006).

Assay [1] has as its system IgG1 production of mouse spleen lymphocytes. Description: Suppressive effect on antibody production of mouse spleen lymphocytes: IgG1. In kind it is cell-based, BALB/c (nu/nu) mice. The settings on record: LPS + IL-4, 10 days. As for the experimental part:
(§1) Experiment 6 Suppressive Effect on Antibody Production of Mouse Spleen Lymphocytes 1. Experimental Method 1) Animals
(§2) BALB/c (nu/nu) mice were bought from Japan SLC, Inc. (Shizuoka) and 7 weeks old-male mice were used.
(§3) RPMI medium (Nissui Pharmaceutical Co., Ltd.) containing 10% fetal bovine serum (HyClone Lab.) inactivated at 56° C. for 30 minutes, penicillin (100 units/ml) and streptomycin (100 μg/ml) (GIBCO) was used for experiments.
(§4) Each of the compounds was dissolved in dimethylsulfoxide (Nakaraitesk) at […] and diluted with the medium to adjust a final concentration to 0.1 μg/ml −10 μg/ml.
(§5) 4) Mouse Spleen Lymphocytes […]
(§6) In 96-well cultivating plate (Sumitomo Bakelite Company Limited) mouse spleen lymphocytes were inoculated 2×10^5 cells per well. […] After the cultivation for 10 days, the amount of the antibody in a supernatant was quantified by ELISA method.
(§7) 7) Quantification of the IgG1, IgG2a and IgM Antibodies
(§8) In 96-well plate 50 μl of 10 μg/ml Goat Anti-Mouse Ig (IgM+G+A, H+ L) (Southern Biotechnology, Birmingham) was added and the plate was coated at 4° C. overnight. […] After washing three times with PBST, 100 μl of culture supernatant which was diluted with PBS or 100 μl of an antibody standard solution (Mouse IgG1 standard, Mouse IgG2a standard, Mouse IgM standard, BETHYL Laboratories) of a pre-determined concentration was added and incubated for 1 hour. […]

The subject of assay [2] is IgG2a production of mouse spleen lymphocytes. Description: Suppressive effect on antibody production of mouse spleen lymphocytes: IgG2a. In kind it is cell-based, BALB/c (nu/nu) mice. The settings on record: LPS + IL-4, 10 days. The method, then:
as §1, §2, §3, §4, §5, §6, §7, §8

Assay [3] relates to IgM production of mouse spleen lymphocytes. Description: Suppressive effect on antibody production of mouse spleen lymphocytes: IgM. Format: cell-based, BALB/c (nu/nu) mice. Particulars: LPS + IL-4, 10 days. As for the experimental part: as §1, §2, §3, §4, §5, §6, §7, §8
Assay [4] has as its system IL-4 production of mouse T cell strain EL-4 (TPA). Description: Suppressive effect on the cytokine production of mouse T cell strain EL-4: IL-4. Particulars: EL-4, TPA 10 ng/ml, 24 hours, ELISA. In kind it is cell-based.
Assay [5] concerns IgE production of mouse spleen lymphocytes (lipopolysaccharide, IL-4). Description: Suppressive effect on antibody production of mouse spleen lymphocytes: IgE. Format: cell-based, BALB/c (nu/nu) mice. The settings on record: LPS + IL-4, 10 days. The method, then:
as §1, §2, §3, §4
4) Mouse Spleen Lymphocytes
A spleen of mouse was taken out and put in a cultivating schale which was filled with Hanks' solution. The spleen was crushed and the cells were pushed out from the organ and filtered through a metal mesh (200 mesh). After the collected cell suspension was washed by centrifugation with sterile Hanks' solution (Nissui Pharmaceutical Co., Ltd.), sterile distilled water was added. […]
as §6
(§9) 6) Quantification of the IgE Antibody
A commercial mouse IgE EIA kit (Yamasa Shoyu Co., Ltd.) was used for the quantification of the IgE. […]

The subject of assay [6] is IL-5 production of mouse T cell strain EL-4 (TPA). Description: Suppressive effect on the cytokine production of mouse T cell strain EL-4: IL-5. Format: cell-based. The settings on record: EL-4, TPA 10 ng/ml, 24 hours, ELISA.
Assay [7] relates to IL-2 production of mouse T cell strain EL-4 (TPA). Kind of assay: Suppressive effect on the cytokine production of mouse T cell strain EL-4: IL-2. In kind it is cell-based. The settings on record: EL-4, TPA 10 ng/ml, 24 hours, ELISA.
The subject of assay [8] is C3H/HeN mouse splenocytes stimulated with Concanavalin A (Con A). Kind of assay: Suppressive effect on mitogenic activity of mouse splenocytes in vitro, Con A as mitogen (MTT). In kind it is cell-based. Particulars: Con A 5 μg/ml as mitogen, 3 days. The method, then: (§10) Experiment 1 Suppressive Effect on a Mitogenic Activity of Mouse Splenocytes In Vitro
(§11) In 96-well microtiter plate 5×10^5 C3H/HeN mouse splenocytes suspended in 0.1 ml of 10% fetal bovine serum-fortified RPMI 1640 medium containing 2 mM of sodium bicarbonate, 50 units/ml of penicillin, 50 μg/ml of streptomycin and 5×10^−5 M of 2-mercaptoethanol were added. Then, 5 μg/ml of Concanavalin A (Con A) or 10 μg/ml of lipopolysaccharide (LPS) as a mitogen and the compound of a pre-determined concentration of the present invention were added to each well so that a final volume of each well reached 0.2 ml. Each compound of the present invention was dissolved in dimethylsulfoxide (DMSO) and diluted with the above RPMI 1640 medium to adjust the final concentration of 100 ng/ml or less. The splenocytes in the 96-well microtiter plate were cultivated at 37° C. for 3 days in an incubator keeping the humidity 100%, carbon dioxide 5% and air 95%. Then, 25 μl of 6 mg/ml MTT [3-(4,5-dimethylthiazol-2-yl)-2,5-diphenyltetrazolium bromide] (Sigma) was added to the each well and cultivated at 37° C. for 4 hours under the same conditions. After the cultivation, 50 μl of 0.02 N hydrochloric acid in 20% sodium dodecyl sulfate (SDS) was added to formazan generated and left at 37° C. for 24 hours for dissolving formazan. An absorption intensity (OD) of formazan generated in proportion to the number of living cells was measured with an immunoreader (InterMed) equipped with a 570 nm filter (The Journal of Immunological Method, 65, 55-63, 1983). The 50% inhibitory concentration of a cell proliferation (IC 50) was calculated from a correlation between the concentration of the compound of the present invention and the absorption intensity.

The subject of assay [9] is IgE antibody production of human peripheral lymphocytes (anti-human CD 40, IL-4, IL-10). Description: Suppressive effect on the antibody production of human lymphocytes: IgE. The settings on record: 10 days, ELISA. Format: cell-based. The method, then:
(§12) Experiment 5 Suppressive Effect on the Antibody Production of Human Lymphocytes
(§13) 1) Human Peripheral Blood
(§14) Human peripheral blood was drawn from healthy male adults by plastic syringes filled with heparin (final concentration 1.5%). Lymphocytes were collected immediately after blood was drawn.
RPMI medium (Nissui Pharmaceutical Co., Ltd.) containing 10% fetal bovine serum (HyClone Lab.) inactivated at 56° C. for 30 minutes, penicillin (100 units/ml) and streptomycin (100 μg/ml) (GIBCO) was used.
After the compound (I-839) of the present invention was dissolved in dimethylsulfoxide (Nakaraitesk) at […], the solution was diluted with the medium to adjust a final concentration to be 0.01 μg/ml −10 μg/ml. […]
(§15) In 96-well cultivating plate (Sumitomo bakelite) the lymphocytes were inoculated 2×10^5 cells per well, and the compound, anti-human CD 40 antigen (Pharmingen, 2 μg/ml), human recombinant interleukin-4 (IL-4) (Genzyme, 0.1 μg/ml) and human recombinant interleukin-10 (IL-10) (Genzyme, 0.2 μg/ml) were added and cultivated at 37° C. under 5% of CO2 (0.2 ml/well). After the cultivation for 10 days, the amount of antibody in a supernatant was quantified by ELISA method.
as §9
A commercial kit MESACUP IgE test (Medical & Biological Laboratories Co., Ltd.) was used for the quantification of the IgE. […]

The test system of assay [10] is mouse thymoma strain EL4 cells. Description: Anti-proliferative activity on EL4 cells (MTT). Format: cell-based. The settings on record: 3 days. As for the experimental part:
Experiment 2 Anti-Proliferative Activity on EL4 Cells
In 96-well microtiter plate 4×10^4/0.1 ml of mouse thymoma strain EL4 cells were added and 0.1 ml of the compound of the present invention was added to the mixture so that the concentration was in the range of 0-5,000 ng/ml. After the cultivation for 3 days, the IC50 was calculated by the MTT method as described in Experiment 1.

Assay [11] has as its system IgM production of human peripheral lymphocytes. Description: Suppressive effect on the antibody production of human lymphocytes: IgM. Format: cell-based. Particulars: 10 days, ELISA. As for the experimental part:
as §12, §13, §14
(§16) RPMI medium (Nissui Pharmaceutical Co., Ltd.) containing 10% fetal bovine serum (HyClone Lab.) inactivated at 56° C. for 30 minutes, penicillin (100 units/ml) and streptomycin (100 μg/ml) (GIBCO) was used. […]
as §15
(§17) 7) Quantification of the IgG and IgM Antibodies
(§18) ELISA method was used for the quantification. […] After washing three times with PBST, 100 μl of a sample diluted with PBS or 100 μl of human Plasma IgG standard solution or IgM standard solution (BioPur AG, Switzerland) of a pre-determined concentration was added and incubated at room temperature for 1 hour. […]

In assay [12] the test system is IgG production of human peripheral lymphocytes. Kind of assay: Suppressive effect on the antibody production of human lymphocytes: IgG. Format: cell-based. Particulars: 10 days, ELISA. The method, then: as §12, §13, §14, §16, §15, §17, §18
The subject of assay [13] is C3H/HeN mouse splenocytes stimulated with lipopolysaccharide (LPS). Kind of assay: Suppressive effect on mitogenic activity of mouse splenocytes in vitro, LPS as mitogen (MTT). The settings on record: LPS 10 μg/ml as mitogen, 3 days. Format: cell-based. The method, then:
as §10, §11

Converted amounts (≈) assume the structure as drawn.

In the case of `COc1cc(-c2ccc(OCC=C(C)C)c(F)c2)c(OC)cc1-c1ccc(O)cc1` [Compound I-73], the “IC50 IgG1” value in assay [1] came to 2600 ng/mL. In assay [2], the “IC50 IgG2a” value is 4900 ng/mL. Besides, the “IC50 IgM” value in assay [3] amounted to 4200 ng/mL. Moreover, the “IC50 IL-4” value in assay [4] came to 20 ng/mL (≈ 49 nM). The “IC50 IgE” value in [5] came out at 0.044 ng/mL. In addition, in assay [6], the “IC50 IL-5” value turned out to be 15 ng/mL (≈ 36.7 nM). Further, the “IC50 IL-2” value in assay [7] is 500 ng/mL (≈ 1220 nM).
With `COc1cc(-c2ccc(O)cc2)c(OC)c(O)c1-c1ccc(OCC=C(Cl)Cl)c(O)c1` [Compound I-121], the “ConA IC50” value in assay [8] is 0.8 ng/mL. Also, in assay [9], the “IC50 IgE” value was under 0.0001 ng/mL. For the same compound, the “EL-4 IC50” value in assay [10] was determined as 0.8 ng/mL. For the same compound, the “IC50 IgM” value in assay [11] is over 1 ng/mL. Also, the “IC50 IgG” value in assay [12] is under 0.0001 ng/mL. Also, in assay [13], the “LPS IC50” value was 1.2 ng/mL.
